US5025099A, “(3-amino-1-propynyl)methylthiothiophene derivatives” (American Cyanamid Company, priority 1990, dated 1991)
Where “and” joins values, the source holds several entries; their conditions need not be identical. Equal values may be shown once. Where a name gives a salt, the structure may show the parent alone.

Columns and labels:
[1] = target: muscarinic cholinergic receptor; test: [^3 H] Quinuclidinyl Benzilate (^3 H-QNB) Binding Assay, rat cerebral cortex homogenate; details: pH 7.4
[2] = target: muscarinic cholinergic receptor; test: [^3 H]-Cis-methyldioxolane (^3 H-CD) Binding Assay (High Affinity), rat cerebral cortex homogenate; details: 1.0 nM ^3 H-CD, 25° C., 120 minutes
[3] = test system: muscarinic sites; details: cited from earlier work
[4] = test system: SDAT patients; details: compared to the anticholinesterase inhibitor physostigmine; cited from earlier work
[5] = rat cerebral cortex, 0.25 nM ^3 H-QNB, 25° C.
[6] = rat cerebral cortex, 0.25 nM ^3 H-QNB, 25° C., hydrochloride

CSc1ccsc1C#CC[N+](C)(C)C [N,N,N-Trimethyl-3-[3-(methylthio)-2-thienyl]-2-propyn-1-aminium, iodide]
IC50 [1, 5]: 5.98 µM | IC50 ([2]; pH 7.4): 0.00592 µM

CSc1cscc1C#CCN(C)C [N,N-Dimethyl-3-[4-(methylthio)-3-thienyl]-2-propyn-1-amine]
IC50 [1, 5]: 239 µM | IC50 ([2]; pH 7.4): 4.83 µM

CSc1cscc1C#CCN1CCCC1 [1-[3-[4-(Methylthio)-3-thienyl]-2-propynyl]pyrrolidine]
IC50 [1, 5]: 3.34 µM | IC50 ([2]; pH 7.4): 0.366 µM

CC(=O)N(C)C(C)C#CCN1CCCC1 (stereo not shown) [BM-5, N-methyl-N-(1-methyl-4-pyrrolidino-2-butynyl)acetamide]
activity at muscarinic sites ([3]; Eur. J. Med. Chem., 1982, 17, 317): antagonist at some muscarinic sites while being an agonist at most others | postsynaptic cholinergic activity ([3]; postsynaptic): postsynaptic partial cholinergic agonist | presynaptic cholinergic activity ([3]; presynaptic): presynaptic cholinergic antagonist

CSc1sccc1C#CCN1CCCCC1 [1-[3-[2-(Methylthio)-3-thienyl]-2-propynyl]piperidine, hydrochloride]
IC50 [1, 6]: 2.2 µM | IC50 ([2]; pH 7.4, hydrochloride): 0.0325 µM

CSc1sccc1C#CCN1CCCC1 [1-[3-[2-(Methylthio)-3-thienyl]-2-propynyl]pyrrolidine]
IC50 [1, 5]: 0.92 µM | IC50 ([2]; pH 7.4): 0.031 µM

CSc1sccc1C#CCN1CCCC1 [1-[3-[2-(Methylthio)-3-thienyl]-2-propynyl]pyrrolidine, hydrochloride]
IC50 [1, 6]: 0.81 µM

CSc1ccsc1C#CCN(C)C [N,N-Dimethyl-3-[3-(methylthio)-2-thienyl]-2-propyn-1-amine]
IC50 [1, 5]: 35 µM | IC50 ([2]; pH 7.4): 1.12 µM

CSc1ccsc1C#CCN(C)C [N,N-Dimethyl-3-[3-(methylthio)-2-thienyl]-2-propyn-1-amine, hydrochloride]
IC50 [1, 6]: 40.4 µM | IC50 ([2]; pH 7.4, hydrochloride): 1.24 µM

CSc1ccsc1C#CCN1CCCCC1 [1-[3-[3-(Methylthio)-2-thienyl]-2-propynyl]piperidine, hydrochloride]
IC50 [1, 6]: 2.1 µM | IC50 ([2]; pH 7.4, hydrochloride): 0.044 µM

CSc1ccsc1C#CCN1CCCC1 [1-[3-[3-(Methylthio)-2-thienyl]-2-propynyl]pyrrolidine]
IC50 [1, 5]: 1.38 µM | IC50 ([2]; pH 7.4): 0.016 µM

CSc1cscc1C#CC[N+](C)(C)C [N,N,N-Trimethyl-3-[4-(methylthio)-3-thienyl]-2-propyn-1-aminium, iodide]
IC50 [1]: 9.05 µM | IC50 ([2]; pH 7.4): 0.121 µM

COC(=O)C1=CCCN(C)C1 [arecoline]
improvement in SDAT patients [4]: more-consistent improvement

CSc1cscc1C#CCN(C)C [N,N-Dimethyl-3-[4-(methylthio)-3-thienyl]-2-propyn-1-amine, hydrochloride]
IC50 [1, 6]: 67.5 µM | IC50 ([2]; pH 7.4, hydrochloride): 1.23 µM

CSc1cscc1C#CCN1CCCCC1 [1-[3-[4-(Methylthio)-3-thienyl]-2-propynyl]piperidine]
IC50 [1, 5]: 5.35 µM and 5.88 µM | IC50 ([2]; pH 7.4): 0.998 µM and 0.53 µM

CSc1sccc1C#CCN(C)C [N,N-Dimethyl-3-[2-(methylthio)-3-thienyl]-2-propyn-1-amine]
IC50 [1, 5]: 21.4 µM | IC50 ([2]; pH 7.4): 0.942 µM

CSc1sccc1C#CCN1CCCCC1 [1-[3-[2-(Methylthio)-3-thienyl]-2-propynyl]piperidine]
IC50 [1, 5]: 1.14 µM | IC50 ([2]; pH 7.4): 0.0311 µM

CSc1cscc1C#CCN1CCCC1 [1-[3-[4-(Methylthio)-3-thienyl]-2-propynyl]pyrrolidine, hydrochloride]
IC50 [1, 6]: 2.27 µM | IC50 ([2]; pH 7.4, hydrochloride): 0.11 µM

CSc1ccsc1C#CCN1CCCCC1 [1-[3-[3-(Methylthio)-2-thienyl]-2-propynyl]piperidine]
IC50 [1, 5]: 1.97 µM | IC50 ([2]; pH 7.4): 0.122 µM

CSc1sccc1C#CCN(C)C [N,N-Dimethyl-3-[2-(methylthio)-3-thienyl]-2-propyn-1-amine, hydrochloride]
IC50 [1, 6]: 23.3 µM | IC50 ([2]; pH 7.4, hydrochloride): 0.969 µM

CSc1sccc1C#CC[N+](C)(C)C [N,N,N-Trimethyl-3-[2-(methylthio)-3-thienyl]-2-propyn-1-aminium, iodide]
IC50 [1, 5]: 3.44 µM | IC50 ([2]; pH 7.4): 0.0523 µM

CSc1ccsc1C#CCN1CCCC1 [1-[3-[3-(Methylthio)-2-thienyl]-2-propynyl]pyrrolidine, hydrochloride]
IC50 [1, 6]: 1.87 µM | IC50 ([2]; pH 7.4, hydrochloride): 0.044 µM
